From US20240025907A1, “QUINAZOLINE PAN-KRas INHIBITORS” (Mirati Therapeutics, Inc., priority 2022, published 2024) come the findings set out here.

Holding throughout (format): cell-based
Assay [1] relates to KRas-mediated Phosphorylation of ERK in A549 cells. In words: Cisbio HTRF pERK assay, A549 cells. The conditions noted are these: Homo sapiens, A549, 3 h, A549 cells, 3 hrs compound; read-out: Inhibition (HTRF IC50 nM) of KRas-mediated Phosphorylation of ERK, A549. (In general: TR-FRET usually uses a lanthanide donor and a delayed reading to cut background.)
For assay [2], the system named is KRas-mediated Phosphorylation of ERK in PSN1 cells. Description: Cisbio HTRF pERK assay, PSN1 cells. The conditions noted are these: Homo sapiens, PSN1, 3 h, 3 hour compound, read-out: Inhibition (HTRF IC50 nM) of KRas-mediated Phosphorylation of ERK, PSN1. As to the method:
(§1) Inhibition of KRas Phosphorylation of ERK (HTRF) by Exemplary Compounds of Formula (I) • Cisbio HTRF Advanced pERK Assay Catalog #64AERPEH • Cell: MKN1, PSN1 • Procedure: • Day 1: Seed 6,000 cells/well −25 μl/well in 384-well white solid bottom plate; RPM1_10% FBS.

Assay [3] relates to KRas-mediated Phosphorylation of ERK in H2009 cells. Description: Cisbio HTRF pERK assay, H2009 cells. Particulars: Homo sapiens, NCI-H2009, H2009 cells; read-out: Inhibition (HTRF IC50 nM) of KRas-mediated Phosphorylation of ERK, H2009.
For assay [4], the system named is KRas-mediated Phosphorylation of ERK in HCT116 cells. Description: Cisbio HTRF pERK assay, HCT116 cells. Particulars: Homo sapiens, HCT-116, 3 h, HCT116 cells, 3 hrs compound; read-out: Inhibition (HTRF IC50 nM) of KRas-mediated Phosphorylation of ERK, HCT116.
Assay [5] has as its system KRas-mediated Phosphorylation of ERK in MKN1 cells. Description: Cisbio HTRF pERK assay, MKN1 cells. Particulars: Homo sapiens, MKN-1, 3 hour compound, read-out: Inhibition (HTRF IC50 nM) of KRas-mediated Phosphorylation of ERK, MKN1. Here is the method: as §1
In assay [6] the test system is KRas-mediated Phosphorylation of ERK in H358 cells. Description: Cisbio HTRF pERK assay, H358 cells. Particulars: Homo sapiens, NCI-H358, 3 h, H358 cells, 3 hrs compound; read-out: Inhibition (HTRF IC50 nM) of KRas-mediated Phosphorylation of ERK, H358.
The test system of assay [7] is KRas-mediated Phosphorylation of ERK in H460 cells. Description: Cisbio HTRF pERK assay, H460 cells. Particulars: Homo sapiens, NCI-H460, 3 h, H460 cells, 3 hrs compound; read-out: Inhibition (HTRF IC50 nM) of KRas-mediated Phosphorylation of ERK, H460.
The subject of assay [8] is KRas-mediated Phosphorylation of ERK in H727 cells. Description: Cisbio HTRF pERK assay, H727 cells. The conditions noted are these: 3 hrs compound, read-out: Inhibition (HTRF IC50 nM) of KRas-mediated Phosphorylation of ERK, H727.
Assay [9] has as its system KRas-mediated Phosphorylation of ERK in AsPC-1 cells. Description: Cisbio HTRF pERK assay, AsPC-1 cells. Particulars: 3 hrs compound, read-out: Inhibition (HTRF IC50 nM) of KRas-mediated Phosphorylation of ERK, AsPC-1.

Like-named read-outs stand apart in the source and are kept apart here.

With `COc1nc(OC[C@@]23CCCN2C[C@H](F)C3)nc2c(F)c(-c3ccc(F)c4sc(N)c(C#N)c34)c(Cl)cc12` [Example 220, 2-amino-4-(6-chloro-8-fluoro-2-(((2R,7aS)-2-fluorotetrahydro-1H-pyrrolizin-7a(5H)-yl)methoxy)-4-methoxyquinazolin-7-yl)-7-fluorobenzo[b]thiophene-3-carbonitrile], the concentration for half-maximal inhibition (IC50) was 261 nM in assay [1]; 5870 nM in [2]; 49 nM in assay [3]; 591 nM in assay [4]; 45 nM in [5]; 63 nM in assay [6]. Moreover, the IC50 in assay [7] was 134 nM; in assay [8] (Homo sapiens, NCI-H727, 3 h) it was 123 nM; in assay [9] (Homo sapiens, ASPC1, 3 h) it was 202 nM.

`N#Cc1c(N)sc2c(F)ccc(-c3c(Cl)cc4c(N5CC(CO)C5)nc(OC[C@@]56CCCN5C[C@H](F)C6)nc4c3F)c12` [Example 221, 2-amino-4-(6-chloro-8-fluoro-2-(((2R,7aS)-2-fluorotetrahydro-1H-pyrrolizin-7a(5H)-yl)methoxy)-4-(3-(hydroxymethyl)azetidin-1-yl)quinazolin-7-yl)-7-fluorobenzo[b]thiophene-3-carbonitrile]: the IC50 in assay [1] was 635 nM; in assay [2], 6040 nM; in [3] it was 145 nM; in [4], 573 nM; in assay [5] it was 86 nM; in [6] it was 154 nM. Further, the IC50 in assay [7] came out at 394 nM; in assay [8] (Homo sapiens, NCI-H727, 3 h) it was 1240 nM; in [9] (Homo sapiens, ASPC1, 3 h) it was 962 nM.

Take `N#Cc1c(N)sc2c(F)ccc(-c3c(F)cc4c(NCc5cn[nH]c5)nc(OC[C@@]56CCCN5C[C@H](F)C6)nc4c3F)c12` [Example 214, 4-(4-(((1H-pyrazol-4-yl)methyl)amino)-6,8-difluoro-2-(((2R,7aS)-2-fluorotetrahydro-1H-pyrrolizin-7a(5H)-yl)methoxy)quinazolin-7-yl)-2-amino-7-fluorobenzo[b]thiophene-3-carbonitrile]: the half-inhibitory concentration (IC50) in [1] was greater than 10000 nM; in [2], greater than 10000 nM; in assay [3], 4690 nM; in assay [4] it was greater than 10000 nM; in [5], 739 nM; in [6], 982 nM. For the same compound, the half-maximal inhibitory concentration (IC50) in [7] is 5060 nM; in assay [8] (Homo sapiens, NCI-H727, 3 h) it was greater than 10000 nM; in assay [9] (Homo sapiens, ASPC1, 3 h), greater than 10000 nM.

`C[C@@]1(O)COCCN(c2nc(OC[C@@]34CCCN3C[C@H](F)C4)nc3c(F)c(-c4ccc(F)c5sc(N)c(C#N)c45)c(Cl)cc23)C1` (atropisomer, axis not shown; (aS)) [Example 192, 2-amino-4-((R)-6-chloro-8-fluoro-2-(((2R,7aS)-2-fluorotetrahydro-1H-pyrrolizin-7a(5H)-yl)methoxy)-4-((S)-6-hydroxy-6-methyl-1,4-oxazepan-4-yl)quinazolin-7-yl)-7-fluorobenzo[b]thiophene-3-carbonitrile]: the IC50 in assay [1] came to 8 nM; in assay [2], 260 nM; in [3], 1 nM; in assay [4] it was 12 nM; in [5], 1 nM; in assay [6] it was 1 nM. In addition, the figures for the IC50 in assay [7], in assay [8] and in [9] were 4 nM, 5 nM and 3 nM, respectively.

Consider `N#Cc1c(N)sc2c(F)ccc(-c3c(Cl)cc4c(N5CC(O)C5)nc(OC[C@@]56CCCN5C[C@H](F)C6)nc4c3F)c12` [Example 219, 2-amino-4-(6-chloro-8-fluoro-2-(((2R,7aS)-2-fluorotetrahydro-1H-pyrrolizin-7a(5H)-yl)methoxy)-4-(3-hydroxyazetidin-1-yl)quinazolin-7-yl)-7-fluorobenzo[b]thiophene-3-carbonitrile], for which the IC50 in [1] is 3340 nM; in [2], greater than 10000 nM; in assay [3], 508 nM; in assay [4], 2250 nM; in assay [5], 266 nM; in assay [6] it was 370 nM. In addition, the IC50 in assay [7] was determined as 1120 nM; in assay [8] (Homo sapiens, NCI-H727, 3 h), 1070 nM; in assay [9] (Homo sapiens, ASPC1, 3 h) it was 2900 nM.

For orientation: IC50 means the midpoint of a concentration-inhibition curve.
